No end group written: not given here.
What was measured:
rats = conditions: Tang-Christensen et al. 1996, route not stated; cited from earlier work
Mice [1] = experiment: Appetite suppression in mice by subcutaneous synthetic GLP-1(7-36)amide: Complan consumption (Example 4); assay type: in vivo; conditions: p<0.001
Method: The test method was as described in Example 3 except that the mice were pre-exposed to formula milk (Complan®—a nutritionally complete infant milk substitute) for one day, then fasted one day. On the test day, consumption of Complan® was measured for each mouse during a 10 min period.
Mice were tested for appetite suppression by subcutaneous injection of GLP-1(7-36)amide dissolved in phosphate buffered saline.

Mice [2] = experiment: Appetite suppression in mice: sucrose consumption measured immediately after intraperitoneal injection (Example 2); assay type: in vivo; conditions: 85 micrograms (equivalent to 3.4 mg/kg) intraperitoneally, tested immediately after injection, 10 minute period, versus vehicle, p-value 0.002
Method: Mice were deprived of their normal food for two days and given free access to a 20% sucrose solution on the first day of food deprivation. After the two day food deprivation period, the mice were injected intraperitoneally with 0.5 ml of a solution containing the test substance. Immediately after injection, individual mice were placed in one of eight 15 cm square test boxes with a stainless steel grid floor and a glass drinking tube which projected into the box. […] Consumption of the sucrose solution was measured over a 10 minute period by electronically recording the total amount of contact with the sucrose solution during the test session. The degree of appetite suppression produced by a given test substance was determined by statistical comparison of the mean duration of sucrose consumption by control (vehicle treated) mice with that of mice treated with a test substance. The degree of appetite suppression in a treated group of mice was expressed as percent difference between the test and control group's response duration means. […]

Healthy human volunteers = experiment: Effect of iv infused GLP-1(7-36)amide on food intake, satiety, hunger, fullness and appetite in normal human subjects (double-blind crossover); assay type: in vivo; conditions: iv infusion 50 pmol/(kg·h) 9.00-15.00, 20 healthy subjects, versus saline
From the text: Healthy human volunteers (20 subjects) were in a double-blind crossover trial given an iv infusion of 50 pmol/(kg·h) of GLP-1(7-36)amide or saline on separate, but otherwise identical experimental days. The infusion was started at 9.00 and lasted until 15.00. At 9.45 the subjects received a fixed amount of breakfast and at 14.15 they had lunch of an identical composition but ad libitum. The subjects rated their feeling of satiety, hunger, fullness and appetite on a visual analogue scale every half hour. The results are given below:
The energy intake of each subjects was measured. The intakes were 3.9 MJ with GLP-1 and 4.3 MJ with Saline resulting in a p-value of 0.009.

**Q.** Which “Effect on food intake” value (rats) does the source give for “GLP-1(1-36)amide (HDEFERHAEGTFTSDVSSYLEGQAAKEFIAWLVKGR-NH2; UniProt P01275 92-127, looked up, fragment) [GLP-1 fragment 1-36, C-terminal amide; literature result]” here?
**A.** no effect on food intake

**Q.** For GLP-1(7-36)amide, which “Suppression of feeding (Complan consumption)” value (Mice [1]; 1 mg/kg subcutaneous, 30 min after injection) is on record?
**A.** 45%

**Q.** And the “Maximum effect, suppression of feeding (Complan consumption)” value (Mice [1]; 20 mg/kg subcutaneous (highest dose tested))?
**A.** 60%

**Q.** And the “Suppression of sucrose consumption” value (Mice [2])?
**A.** 60%

**Q.** Which “Satiety (visual analogue scale rating)” value (Healthy human volunteers; p = 0.006) does the source give for “GLP-1: literature GLP-1 of b7; b6: proglucagon fragment 72-108 commonly referred to as GLP-1(1-37) or just GLP-1” here?
**A.** GLP-1 > Saline, p = 0.006

**Q.** What about the “Appetite (visual analogue scale rating)” value (Healthy human volunteers; p = 0.007) of the same substance?
**A.** GLP-1 < Saline, p = 0.007

**Q.** What about the “Hunger (visual analogue scale rating)” value (Healthy human volunteers; p = 0.007) of the same substance?
**A.** GLP-1 < Saline, p = 0.007

**Q.** And the “Fullness (visual analogue scale rating)” value (Healthy human volunteers; p = 0.010)?
**A.** GLP-1 > Saline, p = 0.010

— patent US20090149387A1, “Use of GLP-1 Peptides” (Novo Nordisk A/S, priority 1996, published 2009)
